The target of one test is T1, TAK1-TAB1 fusion protein (Homo sapiens, UniProt O43318).
T1 construct: purchased Upstate 14-600
T1 sequence (O43318 with tags, fused parts or gaps limits assumed): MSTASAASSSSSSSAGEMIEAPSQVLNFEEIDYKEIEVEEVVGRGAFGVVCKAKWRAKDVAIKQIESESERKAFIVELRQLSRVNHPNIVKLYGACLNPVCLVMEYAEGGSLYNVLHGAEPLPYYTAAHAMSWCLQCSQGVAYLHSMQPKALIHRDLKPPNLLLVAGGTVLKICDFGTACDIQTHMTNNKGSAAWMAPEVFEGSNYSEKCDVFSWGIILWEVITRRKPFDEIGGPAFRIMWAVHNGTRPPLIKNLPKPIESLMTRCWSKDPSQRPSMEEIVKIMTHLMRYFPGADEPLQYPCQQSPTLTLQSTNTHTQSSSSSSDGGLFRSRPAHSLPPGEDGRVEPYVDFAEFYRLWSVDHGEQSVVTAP
Nature of the test: In vitro TAK1 kinase assay. As to conditions: casein substrate, [33P]-γ-ATP, 90 minutes at 30° C., semi-quantitative score, read-out: POTENCY TAK1 (MAP3K7). The format is biochemical. The method, then: For assessing TAK1 inhibition, active TAK1-TAB1 fusion protein was used from Upstate (Cat. No, 14-600). Kinase reactions are set up in 96-well polypropylene plates in 25 μL containing 0.5 mU TAK1-TAB1 fusion protein, 5mM ATP, 0.01 μCi/μL [^33P]-γ-ATP, 0.1 mg/mL casein substrate in 1× reaction buffer containing 10 mM MOPS pH 7.0, 1 mM EDTA.
Starting from the compound master stocks (all at 10 mM concentration in 100% DMSO) a 3-fold serial dilution is made in 96-well plates in 100% DMSO. Plates are further diluted […] in H2O containing 3.5% DMSO, to obtain an intermediate work stock with compounds at 5× the final assay concentration in 5% DMSO.
5 μL of the intermediate stock is transferred into V-bottom 96 well polypropylene plates and 11 μL of Enzyme mix is added. Enzyme mix is made by combining 5 μL 5× reaction buffer ([…] pH 7.0, 1 mM EDTA), 5 μL casein (Sigma) diluted in H20 to 0.5 mg/mL and 1 μL of TAK1-TAB1 fusion protein that was prediluted to 0.5 mU/μL in 1× enzyme dilution buffer (20 mM MOPS pH 7.0, 0.1 mM EDTA, 0.01% Brij-35, 5% glycerol, 1 mM DTT, 1 mg/ml BSA).
The reactions are started by the addition of 9 μL of mixture containing ATP (20.83 uM) and [^33P]-γ-ATP (0.028 μCi/μL).
The assay is stopped 90 minutes after incubation at 30° C. by the addition of 25 μL phosphoric acid (150 mM). The label incorporated into the casein substrate is separated from labeled unincorporated ATP by filtration onto 96-well filter plates using a harvester device. After 6 washes with 75 mM phosphoric acid, the bottom of the filter plates are sealed, and incorporated label is quantified after addition of 40 μL scintillation fluid using TopCount.

The subject of test [1] is MMP1 expression by activated synovial fibroblasts (RASFs). Nature of the test: MMP assay: MMP1 expression by RASFs triggered with TNF-α (MMP1 ELISA). The following applies: Fibroblast, 48 h, TNF-α trigger 10 ng/mL, semi-quantitative score, read-out: REDUCTION MMP1/TNFa. Type of test: cell-based. The procedure: A 384-well format ELISA for measurement of MMP1 is developed. Various primary antibodies are tested, as well as various ELISA protocols. The following protocol is developed and validated to measure MMP1 levels in SF supernatant in 384 well plates: white Lumitrac 600 384 well plates (Greiner) are coated with 2 μg/mL anti-MMP1 antibody MAB1346 (Chemicon). The antibody is diluted in buffer 40 (1.21 g Tris base (Sigma), 0.58 g NaCl (Calbiochem) and 5 mL 10% NaN3 (Sigma) in 1 L milliQ water and adjusted to pH 8.5). After overnight incubation at 4° C., plates are washed with PBS (80 g NaCl, 2 g KCl (Sigma), 11.5 g Na2HPO4.7H2O and 2 g KH2PO4 in 10 L milliQ; pH 7.4) and blocked with 100 μL/well Casein buffer (2% Casein (VWR International) in PBS). Next day, casein buffer is removed from ELISA plates and replaced by 50 μL/well EC buffer (4 g casein, 2.13 g Na2HPO4 (Sigma), 2 g bovine albumin (Sigma), 0.69 g NaH2PO4.H2O (Sigma), 0.5 g CHAPS (Roche), 23.3 g NaCl, 4 mL 0.5 M EDTA pH 8 (Invitrogen), 5 mL 10% NaN3 in 1 L milliQ and adjusted to pH 7.0). 0.25 mM DTT (Sigma) is added to the thawed sample plates. After removal of the EC buffer, 20 μL of sample is transferred to the ELISA plates. After overnight incubation at 4° C. plates are washed twice with PBS and once with PBST (PBS with 0.05% Tween-20 (Sigma)) and incubated with 35 μL/well biotinylated anti-MMP1 antibody solution (R&D). This secondary antibody is diluted in buffer C (0.82 g NaH2PO4.H2O, 4.82 g Na2HPO4, 46.6 g NaCl, 20 g bovine albumin and 4 mL 0.5M EDTA pH 8 in 2 L milliQ and adjusted to pH 7.0) at a concentration of 5 μg/mL. After 2 h of incubation at RT, plates are washed as described above and incubated with 50 μL/well streptavidin-HRP conjugate (Biosource). Streptavidin-HRP conjugate is diluted in buffer C at a concentration of 0.25 μg/mL. After 45 min, plates are washed as described above and incubated for 5 min with 50 μL/well BM Chem ELISA Substrate (Roche). Readout is performed on the Luminoscan Ascent Luminometer (Labsystems) with an integration time of 200 msec or with an Envision reader (Perkin Elmer).
SFs were acquired at passage 1 from a commercial supplier (Cell applications, Inc.). SFs are cultured in DMEM supplemented with 10% heat-inactivated FBS, 1× penicillin/streptomycin (Invitrogen) at 37° C., 10% CO2 until passage 6. Aliquots of the cells are frozen and cryopreserved in liquid nitrogen. Starting from a cryopreserved aliquot, cells are further expanded by sub-culturing cells at 1/3 ratio every week. Cells between passage 10 and 12 are routinely used in compound testing according to following protocol.
Starting from the compound master stocks (all at 10 mM concentration in 100% DMSO) a 3-fold serial dilution is made in 96-well plates in 100% DMSO. Then, plates are further diluted 45-fold in M199 medium supplemented with 1% heat-inactivated FBS to obtain a intermediate work stock.
At day 1, RASFs are seeded in 96 well plates (flat bottom, tissue culture treated, Greiner) at a density of 3000 cells/well in complete synovial growth medium (Cell Applications). Day 5, the medium is completely removed from the cells, and replaced by 81 μL of M199 medium supplemented with 1% heat-inactivated FBS followed by addition of 10 μL compound out of the intermediate work stock. After an incubation period of 90 minutes, which allows the compounds to equilibrate and enter the cells, cells are stimulated with either TNF-α or ‘complex trigger’. TNF-α trigger is added in a volume of […] to obtain final concentration of 10 ng/mL. For that, TNF-α stock (PeproTech) at 10 μg/mL was diluted to 100 ng/mL TNF-a in M199 medium supplemented with 1% FBS. ‘Complex trigger’ mix is added in a volume of 20 μL to obtain a final concentration of 12.5%. For that, ‘complex trigger’ mix, is diluted to 80% with M199 medium supplemented with 1% FBS. […]

Where only a bound is given, the exact number is not on record here.

With `O=c1cc(-c2ccc(Nc3ccc(N4CCN(C5CCC5)CC4)cc3)c3ncnn23)cc[nH]1` [Example 24, 4-(8-{[4-(4-cyclobutylpiperazin-1-yl)phenyl]amino}[1,2,4]triazolo[1,5-a]pyridin-5-yl)pyridin-2(1H)-one], the IC50 is under 0.5 µM at TAK1-TAB1 fusion protein and 1 to 5 µM in test [1].

Turning to `COc1ncc(-c2ccc(Nc3ccc(N4CCOCC4)cc3)c3ncnn23)c(OC)n1` [Example 54, 5-(2,4-dimethoxypyrimidin-5-yl)-N-(4-morpholin-4-ylphenyl)[1,2,4]triazolo[1,5-a]pyridin-8-amine], the IC50 (at TAK1-TAB1 fusion protein; in test [1]) was over 10 µM in each case.

With `CC(C)N1CCN(c2ccc(Nc3ccc(-c4ccc5[nH]ccc5c4)n4ncnc34)cc2)CC1` [Example 51, 5-(1H-indol-5-yl)-N-[4-(4-isopropylpiperazin-1-yl)phenyl][1,2,4]triazolo[1,5-a]pyridin-8-amine], the IC50 (at TAK1-TAB1 fusion protein; in test [1]) was over 10 µM in each case.

Consider `COc1cc(-c2ccc(Nc3ccc(N4CCN(C5CCC5)CC4)cc3)c3ncnn23)ccn1` [Example 31, N-[4-(4-cyclobutylpiperazin-1-yl)phenyl]-5-(2-methoxypyridin-4-yl)[1,2,4]triazolo[1,5-a]pyridin-8-amine], for which the IC50 at TAK1-TAB1 fusion protein is over 10 µM; in test [1], 5 to 10 µM.

Regarding `C[C@@H]1CN(c2ccc(Nc3ccc(-c4cc[nH]c(=O)c4)n4ncnc34)cc2F)C[C@H](C)N1C` [Example 9, 4-[8-({3-fluoro-4-[(3R,5S)-3,4,5-trimethylpiperazin-1-yl]phenyl}amino)[1,2,4]triazolo[1,5-a]pyridin-5-yl]pyridin-2(1H)-one], the figures for the IC50 (on TAK1-TAB1 fusion protein; in test [1]) were 0.501 to 1 µM and 1 to 5 µM, respectively.

With `CC(C)N1CCN(c2ccc(Nc3ccc(-c4cccc(C(N)=O)c4)n4ncnc34)cc2)CC1` [Example 44, 3-(8-{[4-(4-isopropylpiperazin-1-yl)phenyl]amino}[1,2,4]triazolo[1,5-a]pyridin-5-yl)benzamide], the IC50 on TAK1-TAB1 fusion protein was over 10 µM; in test [1], 1 to 5 µM.

As for `CC(C)CCN1CCN(c2ccc(Nc3ccc(-c4ccc(C(N)=O)cc4)n4ncnc34)cc2)CC1` [Example 15, 4-[8-({4-[4-(3-methylbutyl)piperazin-1-yl]phenyl}amino)[1,2,4]triazolo[1,5-a]pyridin-5-yl]benzamide], the IC50 at TAK1-TAB1 fusion protein is under 0.5 µM; in test [1], 1 to 5 µM.

Regarding `O=c1cc(-c2ccc(Nc3ccc(N4CCNCC4)cc3)c3ncnn23)cc[nH]1` [Example 33, 4-{8-[(4-piperazin-1-ylphenyl)amino][1,2,4]triazolo[1,5-a]pyridin-5-yl}pyridin-2(1H)-one], the values for the IC50 (on TAK1-TAB1 fusion protein; in test [1]) were under 0.5 µM and 1 to 5 µM, respectively.

As to `CC(C)N1CCN(c2ccc(Nc3ccc(-c4cccc5[nH]ccc45)n4ncnc34)cc2)CC1` [Example 49, 5-(1H-indol-4-yl)-N-[4-(4-isopropylpiperazin-1-yl)phenyl][1,2,4]triazolo[1,5-a]pyridin-8-amine], the IC50 at TAK1-TAB1 fusion protein was 1 to 5 µM; in test [1], over 10 µM.

Consider `CCCN1CCN(c2ccc(Nc3ccc(-c4ccnc(OC)c4)n4ncnc34)cc2)CC1` [Example 27, 5-(2-methoxypyridin-4-yl)-N-[4-(4-propylpiperazin-1-yl)phenyl][1,2,4]triazolo[1,5-a]pyridin-8-amine], for which the IC50 on TAK1-TAB1 fusion protein is over 10 µM; in test [1], 1 to 5 µM.

For `COc1cc(-c2ccc(Nc3ccc(N4CCN(C5CC5)CC4)cc3)c3ncnn23)ccn1` [Example 30, N-[4-(4-cyclopropylpiperazin-1-yl)phenyl]-5-(2-methoxypyridin-4-yl)[1,2,4]triazolo[1,5-a]pyridin-8-amine], the IC50 is over 10 µM on TAK1-TAB1 fusion protein and 1 to 5 µM in test [1].

In the case of `CC(C)N1CCN(c2ccc(Nc3ccc(-c4c[nH]c(=O)[nH]c4=O)n4ncnc34)cc2)CC1` [Example 55, 5-(8-{[4-(4-isopropylpiperazin-1-yl)phenyl]amino}[1,2,4]triazolo[1,5-a]pyridin-5-yl)pyrimidine-2,4(1H,3H)-dione], the IC50 (on TAK1-TAB1 fusion protein; in test [1]) was over 10 µM throughout.

For `c1cc(-c2ccc(Nc3ccc(N4CCOCC4)cc3)c3ncnn23)c2cc[nH]c2c1` [Example 48, 5-(1H-indol-4-yl)-N-(4-morpholin-4-ylphenyl)[1,2,4]triazolo[1,5-a]pyridin-8-amine], the IC50 is over 10 µM on TAK1-TAB1 fusion protein and 1 to 5 µM in test [1].

Take `COc1cc(-c2ccc(Nc3ccc(N4CCN(C5CCCCC5)CC4)cc3)c3ncnn23)ccn1` [Example 32, N-[4-(4-cyclohexylpiperazin-1-yl)phenyl]-5-(2-methoxypyridin-4-yl)[1,2,4]triazolo[1,5-a]pyridin-8-amine]: the IC50 on TAK1-TAB1 fusion protein was over 10 µM; in test [1], 5 to 10 µM.

For `C[C@@H]1CN(C)[C@@H](C)CN1c1ccc(Nc2ccc(-c3cc[nH]c(=O)c3)n3ncnc23)cc1F` (relative stereo) [Example 11, rel-4-[8-({3-fluoro-4-[(2R,5S)-2,4,5-trimethylpiperazin-1-yl]phenyl}amino)[1,2,4]triazolo[1,5-a]pyridin-5-yl]pyridin-2(1H)-one], the IC50 was under 0.5 µM at TAK1-TAB1 fusion protein and 1 to 5 µM in test [1].

The values above are taken from US7977352B2, “Triazolopyridine compounds useful for the treatment of degenerative and inflammatory diseases” (Galapagos NV, priority 2006, dated 2011).
